Experimental data: patent US5550148A, “PAF synthesis modulators” (ZymoGenetics, Inc., priority 1995, dated 1996)

Assays:
[1] = tested on: remodeling PAF-acetyltransferase; experiment: inhibition of remodeling PAF-acetyltransferase (remodeling pathway of PAF synthesis); type: biochemical
Text: A second screening assay detects modulators of the formation of PAF from lyso-PAF and acetyl-CoA by an enzyme termed PAF acetyltransferase. This is the second step in the remodeling pathway of PAF synthesis, described by Wykle, J. Biol. Chem. 255:10256-60, 1980.
The remodeling pathway of PAF synthesis is the pathway involved in pathological processes, such as inflammation, and particularly in neutrophil-mediated processes. The de novo pathway of PAF synthesis is required for normal physiological functions. Therefore, a desirable, anti-inflammatory, therapeutically effective PAF modulator will down-regulate the remodeling pathway, but will have little or no effect on the de novo pathway of PAF synthesis.
Briefly, to assay the remodeling pathway acetyl-transferase, […] of […] bovine serum albumin (fatty acid free; Sigma) in PBS (120 mM NaCl, 2.7 mM KCl, 10 mM phosphate buffer, pH 7.4, supplemented with 10 μM CaCl2) was added to each well of a 96-well, flat-bottom microtiter plate. The plate was incubated for 15 min at ambient temperature, then the wells were aspirated and 50 μl of PBS was added to each well. Duplicate or triplicate test samples in DMSO (≤5% (v/v)) were added to each well.
HL-60 cells (a stable, transformed hematopoietic cell line) were combined with PBS containing 0.05% TWEEN-20 and mixed vigorously at 500 rpm for 30 sec. This treatment permeabilized the HL-60 cells. An aliquot (50 μl) of HL-60 lysate so formed was added to each well of the plate, and the plate was incubated for 5 min at ambient temperature with gentle shaking.
PAF acetyl-transferase substrates were added to each well, such that 25 μl of the following solution was added per well: Lyso-PAF ([…]; Calbiochem, La Jolla, Calif.), acetyl-CoA ([…]; Calbiochem), and ^3 H-acetyl-CoA (25 μCi/ml; Amersham). The plate was gently mixed for 45 sec and then incubated at 37° C. for 20 min.
Newly synthesized PAF was extracted by adding 1.25 mg of AMBERCHROM CG-71 resin (Supelco, Bellefonte, Pa.) in 25 μl of distilled water to each well. The plate was gently shaken for 1 min, following which the resin was collected on a 102 mm×258 mm glass-fiber filter using a MICRO-CELL HARVESTER (Skatron, Waltham, Mass.). The filter was washed with 500 ml water to remove unincorporated ^3 H-acetyl-CoA. Following the wash, the filter was dried in a microwave oven for 5-10 min.
After the filter was dried, it was soaked in 10 ml of Beta Plate scintillation fluid (LKB, Loughborough, England), and bound counts were determined in a TOP COUNT scintillation counter (Pharmacia). Percentage inhibition was determined by dividing the average of 2 or 3 replicate wells by the average of 3 control wells (5% DMSO alone), and multiplying by 100.

[2] = tested on: de novo PAF-acetyltransferase; experiment: inhibition of de novo PAF-acetyltransferase (de novo pathway of PAF synthesis); type: biochemical
[3] = target: PAF binding sites (Homo sapiens, UniProt P25105); experiment: displacement of [^3 H]PAF from PAF binding sites; conditions: 0.01, 0.1, 1 and 10 μM tested, 0.5% DMSO
Protocol: (§1) Compound 1494 was assayed for a variety of inhibitory activities. […] Displacement of [^3 H]pyrilamine from histamine H1 binding sites (IC50 of about 3 μM) was noted, but may be unrelated to functional receptor agonism or antagonism. Displacement of [3H]dexamethasone from glucocorticoid binding sites (IC50 of about 3 μM) was also observed. Inhibition of the following activities was also detected: […]

[4] = target: histamine H1 binding sites (Homo sapiens, UniProt P35367); experiment: displacement of [^3 H]pyrilamine from histamine H1 binding sites; conditions: 0.01, 0.1, 1 and 10 μM tested, 0.5% DMSO
Protocol: as §1

[5] = target: T1, glucocorticoid binding sites (Homo sapiens, UniProt P04150); experiment: displacement of [3H]dexamethasone from glucocorticoid binding sites; conditions: 0.01, 0.1, 1 and 10 μM tested, 0.5% DMSO
T1 sequence (P04150 1-777): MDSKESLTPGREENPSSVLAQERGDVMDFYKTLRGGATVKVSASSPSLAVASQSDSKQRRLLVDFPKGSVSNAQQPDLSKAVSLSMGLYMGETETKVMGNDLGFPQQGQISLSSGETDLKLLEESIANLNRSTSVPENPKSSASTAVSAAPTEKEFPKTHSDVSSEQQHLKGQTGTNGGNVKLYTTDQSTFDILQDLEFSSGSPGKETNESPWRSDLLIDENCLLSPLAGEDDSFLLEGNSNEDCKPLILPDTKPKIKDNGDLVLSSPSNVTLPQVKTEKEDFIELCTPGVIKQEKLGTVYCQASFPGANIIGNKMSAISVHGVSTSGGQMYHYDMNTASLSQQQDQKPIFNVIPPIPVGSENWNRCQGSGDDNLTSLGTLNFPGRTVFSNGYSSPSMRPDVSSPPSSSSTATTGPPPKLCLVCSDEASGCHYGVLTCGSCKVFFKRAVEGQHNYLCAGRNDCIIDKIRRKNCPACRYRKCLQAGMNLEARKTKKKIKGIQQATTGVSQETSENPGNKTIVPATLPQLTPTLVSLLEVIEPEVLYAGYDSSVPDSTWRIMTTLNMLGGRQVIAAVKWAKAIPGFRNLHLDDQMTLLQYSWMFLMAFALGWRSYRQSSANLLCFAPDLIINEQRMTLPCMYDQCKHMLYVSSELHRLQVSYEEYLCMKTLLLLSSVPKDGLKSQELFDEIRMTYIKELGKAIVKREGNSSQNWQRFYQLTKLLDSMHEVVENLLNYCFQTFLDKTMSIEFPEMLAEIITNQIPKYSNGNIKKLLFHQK
Protocol: as §1

[6] = target: EGF tyrosine kinase (Homo sapiens, UniProt P00533); experiment: inhibition of EGF tyrosine kinase; type: biochemical; conditions: 0.5% DMSO
Protocol: as §1

[7] = target: P56^lck tyrosine kinase (Homo sapiens, UniProt P06239); experiment: inhibition of P56^lck tyrosine kinase; type: biochemical; conditions: 0.5% DMSO
Protocol: as §1

[8] = target: P59^fyn tyrosine kinase (Homo sapiens, UniProt P06241); experiment: inhibition of P59^fyn tyrosine kinase; type: biochemical; conditions: 0.5% DMSO
Protocol: as §1

[9] = target: T2, 5-lipoxygenase (Homo sapiens, UniProt P09917); experiment: inhibition of 5-lipoxygenase; type: biochemical; conditions: 0.5% DMSO
T2 sequence (P09917 1-674): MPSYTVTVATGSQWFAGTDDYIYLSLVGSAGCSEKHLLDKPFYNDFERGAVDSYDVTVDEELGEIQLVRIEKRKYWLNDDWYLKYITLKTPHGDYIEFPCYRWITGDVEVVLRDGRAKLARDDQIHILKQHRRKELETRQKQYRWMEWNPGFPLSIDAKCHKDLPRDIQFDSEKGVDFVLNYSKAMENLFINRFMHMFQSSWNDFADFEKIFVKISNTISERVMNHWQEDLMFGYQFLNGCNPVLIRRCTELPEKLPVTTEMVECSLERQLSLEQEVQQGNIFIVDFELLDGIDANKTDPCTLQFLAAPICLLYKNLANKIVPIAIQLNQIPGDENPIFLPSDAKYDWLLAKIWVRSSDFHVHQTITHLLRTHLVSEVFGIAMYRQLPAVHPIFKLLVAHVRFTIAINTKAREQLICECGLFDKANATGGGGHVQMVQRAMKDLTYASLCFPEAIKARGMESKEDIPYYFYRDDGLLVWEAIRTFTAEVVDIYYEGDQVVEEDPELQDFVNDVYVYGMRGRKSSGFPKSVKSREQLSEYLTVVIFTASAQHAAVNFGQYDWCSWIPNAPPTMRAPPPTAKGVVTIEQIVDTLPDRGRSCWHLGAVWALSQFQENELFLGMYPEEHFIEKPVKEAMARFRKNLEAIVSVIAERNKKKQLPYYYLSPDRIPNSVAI
Protocol: as §1

[10] = target: Phospholipase A2; experiment: inhibition of Phospholipase A2; type: biochemical; conditions: 0.5% DMSO
Protocol: as §1

[11] = target: Cyclooxygenase; experiment: inhibition of Cyclooxygenase; type: biochemical; conditions: 0.5% DMSO
Protocol: as §1

[12] = tested on: B cell; experiment: B cell proliferation in the presence of LPS; type: cell-based
[13] = tested on: T cell; experiment: T cell proliferation in the presence of ConA; type: cell-based
[14] = solubility in 0.5% DMSO; type: physicochemical; conditions: at 0.01, 0.1, 1 and 10 μM

Sequence of P56^lck tyrosine kinase (P06239 whole entry): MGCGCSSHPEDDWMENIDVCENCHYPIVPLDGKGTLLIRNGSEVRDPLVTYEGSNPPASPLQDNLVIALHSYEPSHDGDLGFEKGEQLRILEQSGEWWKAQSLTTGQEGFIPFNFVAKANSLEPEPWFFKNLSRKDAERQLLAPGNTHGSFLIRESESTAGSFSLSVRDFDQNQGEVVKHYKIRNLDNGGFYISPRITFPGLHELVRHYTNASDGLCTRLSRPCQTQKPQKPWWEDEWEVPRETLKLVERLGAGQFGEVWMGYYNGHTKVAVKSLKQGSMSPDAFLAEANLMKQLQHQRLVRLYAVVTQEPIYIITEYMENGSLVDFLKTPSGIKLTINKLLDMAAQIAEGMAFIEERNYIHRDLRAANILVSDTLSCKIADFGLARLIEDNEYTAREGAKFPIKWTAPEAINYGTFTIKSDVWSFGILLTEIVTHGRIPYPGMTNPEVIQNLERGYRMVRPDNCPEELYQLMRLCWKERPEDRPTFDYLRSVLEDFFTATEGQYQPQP
Sequence of EGF tyrosine kinase (P00533 25-1210): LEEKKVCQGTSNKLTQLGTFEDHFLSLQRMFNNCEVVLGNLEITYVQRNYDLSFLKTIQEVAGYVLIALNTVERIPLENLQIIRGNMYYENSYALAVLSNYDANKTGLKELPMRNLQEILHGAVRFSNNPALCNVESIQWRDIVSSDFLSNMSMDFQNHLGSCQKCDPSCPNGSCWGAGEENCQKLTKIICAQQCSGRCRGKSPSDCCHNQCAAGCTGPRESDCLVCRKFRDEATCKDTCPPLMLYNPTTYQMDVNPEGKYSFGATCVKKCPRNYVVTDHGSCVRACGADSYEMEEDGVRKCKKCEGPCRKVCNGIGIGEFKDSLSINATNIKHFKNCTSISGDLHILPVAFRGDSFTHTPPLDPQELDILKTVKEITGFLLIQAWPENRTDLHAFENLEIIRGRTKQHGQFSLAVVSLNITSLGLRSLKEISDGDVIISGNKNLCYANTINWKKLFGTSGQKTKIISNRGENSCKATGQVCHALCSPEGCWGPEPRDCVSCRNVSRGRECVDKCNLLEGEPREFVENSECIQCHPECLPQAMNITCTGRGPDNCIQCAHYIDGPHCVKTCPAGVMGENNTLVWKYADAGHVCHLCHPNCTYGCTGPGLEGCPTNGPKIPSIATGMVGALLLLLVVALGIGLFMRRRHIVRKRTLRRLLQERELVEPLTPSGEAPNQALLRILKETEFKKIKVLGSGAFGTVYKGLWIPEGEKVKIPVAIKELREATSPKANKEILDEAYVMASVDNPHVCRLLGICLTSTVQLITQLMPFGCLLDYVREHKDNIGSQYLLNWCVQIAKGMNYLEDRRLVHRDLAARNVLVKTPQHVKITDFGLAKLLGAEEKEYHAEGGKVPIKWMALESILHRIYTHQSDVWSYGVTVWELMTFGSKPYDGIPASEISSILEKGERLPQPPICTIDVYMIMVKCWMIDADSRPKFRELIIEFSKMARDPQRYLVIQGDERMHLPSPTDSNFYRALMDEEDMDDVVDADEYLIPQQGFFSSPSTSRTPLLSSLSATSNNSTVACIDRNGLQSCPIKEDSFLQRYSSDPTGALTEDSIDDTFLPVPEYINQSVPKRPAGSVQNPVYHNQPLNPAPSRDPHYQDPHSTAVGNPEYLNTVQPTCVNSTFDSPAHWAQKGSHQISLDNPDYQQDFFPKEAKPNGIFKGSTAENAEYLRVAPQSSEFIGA
Sequence of PAF binding sites (P25105 whole entry): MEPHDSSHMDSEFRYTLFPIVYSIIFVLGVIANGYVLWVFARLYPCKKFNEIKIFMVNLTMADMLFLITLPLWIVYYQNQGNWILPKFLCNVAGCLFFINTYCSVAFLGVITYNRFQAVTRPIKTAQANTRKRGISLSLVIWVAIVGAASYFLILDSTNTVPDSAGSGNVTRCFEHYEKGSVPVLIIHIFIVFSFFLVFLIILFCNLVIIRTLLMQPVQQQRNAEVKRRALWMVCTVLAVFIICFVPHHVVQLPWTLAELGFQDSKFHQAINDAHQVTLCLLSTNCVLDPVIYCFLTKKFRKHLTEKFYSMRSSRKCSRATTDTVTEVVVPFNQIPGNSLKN
Sequence of P59^fyn tyrosine kinase (P06241 whole entry): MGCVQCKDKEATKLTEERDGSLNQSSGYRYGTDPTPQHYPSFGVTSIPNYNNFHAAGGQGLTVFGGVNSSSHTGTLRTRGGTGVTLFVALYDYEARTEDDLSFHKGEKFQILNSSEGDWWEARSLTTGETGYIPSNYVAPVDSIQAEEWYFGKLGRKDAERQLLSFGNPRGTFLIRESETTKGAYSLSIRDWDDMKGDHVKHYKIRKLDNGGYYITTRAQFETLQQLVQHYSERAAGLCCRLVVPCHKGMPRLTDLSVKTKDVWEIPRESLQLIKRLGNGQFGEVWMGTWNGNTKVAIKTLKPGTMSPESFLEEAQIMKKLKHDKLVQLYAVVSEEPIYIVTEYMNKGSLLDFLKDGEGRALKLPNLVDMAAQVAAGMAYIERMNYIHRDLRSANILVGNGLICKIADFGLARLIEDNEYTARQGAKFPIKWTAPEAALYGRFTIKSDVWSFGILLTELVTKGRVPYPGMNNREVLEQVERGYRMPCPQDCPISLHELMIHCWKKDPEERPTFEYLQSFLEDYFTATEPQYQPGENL
Sequence of histamine H1 binding sites (P35367 whole entry): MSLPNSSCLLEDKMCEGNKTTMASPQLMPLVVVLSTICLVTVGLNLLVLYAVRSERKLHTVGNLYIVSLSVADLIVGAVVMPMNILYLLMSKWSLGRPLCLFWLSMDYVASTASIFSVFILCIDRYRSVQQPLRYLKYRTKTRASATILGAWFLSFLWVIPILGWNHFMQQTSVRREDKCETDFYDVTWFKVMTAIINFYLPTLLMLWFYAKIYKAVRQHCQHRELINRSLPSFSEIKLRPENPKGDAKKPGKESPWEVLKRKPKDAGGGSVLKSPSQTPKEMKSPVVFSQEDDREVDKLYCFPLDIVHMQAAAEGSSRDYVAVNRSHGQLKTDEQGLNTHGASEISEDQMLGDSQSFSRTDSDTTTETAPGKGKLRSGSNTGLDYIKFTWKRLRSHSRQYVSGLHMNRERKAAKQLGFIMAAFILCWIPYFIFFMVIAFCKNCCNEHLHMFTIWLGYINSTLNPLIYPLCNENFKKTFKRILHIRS

SMILES: CCC(C)C=C(C)C1C(C)=CC2(C)CC(C)CCC2C1C(=O)C1=CC(O)(Cc2ccc(O)cc2)NC1=O (centres unmarked) [Compound 1494]
- inhibition of remodeling PAF-acetyltransferase ([1]; 0.1 μg/well): about 12%
- inhibition of remodeling PAF-acetyltransferase ([1]; 8.3 μg/well): about 71%
- inhibition of remodeling PAF-acetyltransferase ([1]; 25 μg/well): about 65%
- selectivity for the remodeling pathway of PAF synthesis ([1]; versus de novo PAF-acetyltransferase): selective modulator of the remodeling pathway of PAF synthesis
- inhibition of de novo PAF-acetyltransferase ([2]; 0.1 to 8.3 μg/well): no significant inhibition
- IC50 [3]: ~3 µM
- IC50 [4]: ~3 µM
- IC50 [5]: ~3 µM
- IC50 [6]: ~3 µM
- IC50 [7]: ~3 µM
- IC50 [8]: ~3 µM
- IC50 [9]: ~10 µM
- IC50 [10]: ~100 µM
- IC50 [11]: ~300 µM
- B cell proliferation [12]: stimulated B cell proliferation
- T cell proliferation [13]: T cell proliferation
- solubility [14]: partial solubility

SMILES: CCC(C)C=C(C)C1C(C)=CC2(C)CC(C)CC(C)C2C1C(=O)C1=CC(O)(Cc2ccc(O)cc2)NC1=O (centres unmarked) [Compound 2158]
- inhibition of remodeling PAF-acetyltransferase ([1]; 25 μg/well): 59%
- inhibition of remodeling PAF-acetyltransferase ([1]; 0.9 to 0.1 μg/well): 0%
- inhibition of de novo PAF-acetyltransferase ([2]; 0.1 to 25 μg/well): No significant inhibition
